These results are taken from US4555572A, “Pyrazolo[3,4,5-kl]acridine compositions and methods for their production and use” (Warner-Lambert Company, priority 1984, dated 1985).

The test system of one assay is Streptococcus faecalis. Description: in vitro antibacterial/antifungal (ABF) agar-disk diffusion assay. The assay is classed as cell-based. The conditions noted are these: Enterococcus faecalis, read-out: ABF zone diameter S. faecalis; for zone of inhibition at 500 µg/mL: dose .5 mg/ml. The method, then: (§1) (b) Another test protocol is the in vitro antibacterial/antifungal (ABF) test. Compounds are tested for antimicrobial activity in an agar-disk diffusion assay, a standard microbiological technique for testing antibiotics. After incubation of each culture with a test compound, a zone of inhibition is determined. The zone diameter (mm) of active compounds ranges from a minimum of 14 mm to as high as 60 mm, with a greater diameter reflecting higher activity. For convenience, values are reported for (Alcaligenes viscolactis, Sarcina lutea, Branhamella catarrhalis, Bacillus subtilis, and Streptococcus faecalis.
A general note: Agar diffusion results depend on both activity and mobility in agar.

A further assay has as its system Alcaligenes viscolactis. Described as above. The assay is classed as cell-based. The conditions noted are these: dose .1 mg/ml, read-out: ABF zone diameter A. viscol. The method, then: as §1
In a further assay the test system is Branhamella catarrhalis. Described as above. Format: cell-based. To be noted: Moraxella catarrhalis, read-out: ABF zone diameter B. catarrh.; for zone of inhibition at 500 µg/mL: dose .5 mg/ml. The method, then:
as §1

The next assay deals with Sarcina lutea. Described as above. The assay is classed as cell-based. The conditions noted are these: Micrococcus luteus, read-out: ABF zone diameter S. lutea. The method, then:
as §1

Another assay relates to Bacillus subtilis. The description is as above. Format: cell-based. The conditions noted are these: Bacillus subtilis, read-out: ABF zone diameter B. subtil.; for zone of inhibition at 100 µg/mL: dose .1 mg/ml. The method, then:
as §1

In another assay the test system is HCT-8 cells. Description: in vitro proliferating human colon adenocarcinoma (HCA) cell screen, HCT-8. Format: cell-based. The conditions noted are these: HCT-8 cells, 60 to 65 hours, molar concentration for 50% inhibition of growth, read-out: HCA in vitro ID50 avg. The method in brief:
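HCT-8 colon adenocarcinoma cells seeded in RPMI 1640 + 10% FCS, grown 48 h, then exposed to compounds for 60-65 h at 37 °C, 5% CO2. Nuclei counted by Coulter counter after lysis; ID50 is the molar concentration giving 50% growth inhibition.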

Assay [1] relates to lymphocytic leukemia P388. In words: in vivo lymphocytic leukemia P388 test. To be noted: Mus musculus, P388, ip, 120 h, intraperitoneally once daily for five days, read-out: P388 in vivo T/C × 100. Details: species or system CD2 F1 mice. The essentials:
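CD2 F1 mice (6–7 per group) inoculated i.p. with P388 ascitic cells; compound dosed i.p. once daily for 5 consecutive days after inoculation. Survival followed 30 days; efficacy as treated/control survival time ×100 (≥125 criterion); "toxic" if all animals died within 4 days of first dose.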

With `CCN(CC)CCn1nc2c3c(c([N+](=O)[O-])ccc31)N(C)c1ccc(OC)cc1-2` [Example 6, N,N-Diethyl-9-methoxy-6-methyl-5-nitropyrazolo[3,4,5-kl]acridine-2(6H)-ethanamine, monomethanesulfonate], the zone of inhibition at 1000 µg/mL with Streptococcus faecalis (dose 1 mg/ml) was 15 mm. Also, in the assay with Alcaligenes viscolactis, the zone of inhibition at 100 µg/mL stood at 15 mm. Also, the zone of inhibition at 500 µg/mL with Branhamella catarrhalis was 16 mm. Also, the zone of inhibition at 500 µg/mL in the assay on Sarcina lutea (dose .5 mg/ml) came out at 15 mm. In addition, in the assay with Bacillus subtilis (dose .5 mg/ml), the zone of inhibition at 500 µg/mL came out at 19 mm. The IC50 with HCT-8 cells was 310 nM. Further, in assay [1], the response vs control in vivo at 6.25 mg/kg was determined as 142%, the response vs control in vivo at 12.5 mg/kg is 151%, the response vs control in vivo at 25 mg/kg came to 173% and the response vs control in vivo at 50 mg/kg is 230%.

Regarding `COc1ccc2c(c1)-c1nn(CCN(C)C)c3ccc([N+](=O)[O-])c(c13)N2` [Example 5a, 9-methoxy-N,N-dimethyl-5-nitropyrazolo[3,4,5-kl]acridine-2(6H)=-ethanamine, methanesulfonate], the values for the zone of inhibition at 500 µg/mL in the assay on Streptococcus faecalis and with Branhamella catarrhalis were 15 mm and 21 mm, respectively. Further, the values for the zone of inhibition at 100 µg/mL in the assay on Alcaligenes viscolactis and in the assay on Bacillus subtilis were 19 mm and 14 mm, respectively. The zone of inhibition at 1000 µg/mL in the assay with Sarcina lutea (dose 1 mg/ml) is 16 mm. Moreover, the IC50 in the assay on HCT-8 cells was 100 nM. Also, in assay [1], the response vs control in vivo at 12.5 mg/kg was found to be 181%. Moreover, the response vs control in vivo at 25 mg/kg in assay [1] came out at 228%. The response vs control in vivo at 50 mg/kg in assay [1] was determined as 275%.

`CCN(CC)CCn1nc2c3c(c([N+](=O)[O-])ccc31)Nc1ccccc1-2` [Example 1, N,N-Diethyl-5-nitropyrazolo[3,4,5-kl]acridine-2(6H)-ethanamine, methanesulfonate (1:1)]: in the assay with Streptococcus faecalis, the zone of inhibition at 500 µg/mL stood at 17 mm. In addition, the zone of inhibition at 100 µg/mL in the assay on Alcaligenes viscolactis was 22 mm; in the assay with Branhamella catarrhalis (dose .1 mg/ml), 17 mm; with Sarcina lutea (dose .1 mg/ml), 14 mm; in the assay on Bacillus subtilis, 15 mm. For the same molecule, the IC50 with HCT-8 cells stood at 300 nM. The response vs control in vivo at 2.5 mg/kg in assay [1] (2.50 mg/kg) was 122%. Further, the response vs control in vivo at 5 mg/kg in assay [1] (5.00 mg/kg) came to 163%. Further, in assay [1], the response vs control in vivo at 6.25 mg/kg worked out at 165%.
